Among the test systems are A549; BT-549; CCRF-CEM; HCT-116; HL-60; HOP-62; HOP-92; HT-29; IGROV-1; K562; KM12; M14; MOLT-4; OVCAR-4; OVCAR-8; RXF 393; SK-MEL-28; SK-MEL-2; SNB-19; UACC-257.
Holding throughout (experiment): inhibition of tumour cell growth, NCI panel, 48 h

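Cells were grown in 96-well plates and exposed to each compound for 48 hours at five concentrations; endpoints were interpolated linearly between bracketing concentrations, or set to the highest concentration if not reached. GI50 = concentration required for 50% inhibition of growth.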 Calls of active or inactive are those of the source. Cut-off read from the data, not from the text of the source: active = GI50 up to about 1.1 µM and inactive = higher.

Take `OC1(c2ccc(Cl)cc2)c2ccccc2C2=Nc3ccccc3CN21` (stereo not given): the GI50 in the assay on A549 is 12.7 µM (inactive); in the assay on BT-549, > 100 µM (inactive); in the assay on CCRF-CEM, > 65.9 µM (inactive); in the assay with HCT-116, 6.9 µM (inactive); with HL-60 it was 18.4 µM (inactive); with HOP-62 it was 12.9 µM (inactive). The GI50 is > 60.3 µM (inactive) in the assay with HOP-92; 14.8 µM (inactive) in the assay with HT-29; 39.2 µM (inactive) with IGROV-1; > 100 µM (inactive) in the assay on K562; 28 µM (inactive) with KM12; > 100 µM (inactive) with M14. Also, the GI50 in the assay with MOLT-4 was 61.8 µM (inactive); in the assay with OVCAR-4, 20.6 µM (inactive); with OVCAR-8 it was 13.2 µM (inactive); in the assay with RXF 393, 21 µM (inactive); in the assay with SK-MEL-28, 29 µM (inactive); with SK-MEL-2, > 51.2 µM (inactive). Further, the GI50 in the assay with SNB-19 was 36.1 µM (inactive); with UACC-257, > 100 µM (inactive).
As to `Nc1ccc(S(=O)(=O)NCc2nccs2)cc1`, the GI50 with A549 was 27.9 µM (inactive); in the assay on BT-549 it was 20.1 µM (inactive); with CCRF-CEM, 18.2 µM (inactive); with HCT-116, 19 µM (inactive); in the assay on HL-60 it was 20.4 µM (inactive); in the assay with HOP-62 it was 36.8 µM (inactive). Moreover, the GI50 with HOP-92 is 18.8 µM (inactive); with HT-29, 16.7 µM (inactive); in the assay with IGROV-1, 23.4 µM (inactive); with K562 it was 23.5 µM (inactive); in the assay with KM12, 20.9 µM (inactive); in the assay on M14, 18.2 µM (inactive). In addition, the GI50 in the assay with MOLT-4 is 23.2 µM (inactive); in the assay with OVCAR-4, 29.3 µM (inactive); in the assay on OVCAR-8 it was 32.7 µM (inactive); in the assay on RXF 393, 29.9 µM (inactive); in the assay with SK-MEL-28, 18.1 µM (inactive); in the assay on SK-MEL-2 it was 20 µM (inactive). Moreover, the results for the GI50 in the assay with SNB-19 and in the assay with UACC-257 were 29.1 µM (inactive) and 17.7 µM (inactive), respectively.
On to `Cc1cc(O)c2cc3c(O)c(O)ccc3cc2c1`, for which the GI50 in the assay with A549 is 1.14 µM (inactive); in the assay on BT-549, 0.726 µM (active); with CCRF-CEM, 1.27 µM (inactive); with HCT-116, 0.494 µM (active); in the assay with HL-60 it was 1.73 µM (inactive); in the assay with HOP-62, 1.29 µM (inactive). In addition, the GI50 in the assay on HOP-92 is 2.61 µM (inactive); in the assay with HT-29, 2.54 µM (inactive); with IGROV-1 it was 1.51 µM (inactive); in the assay with K562, 1.04 µM (active); with KM12 it was 0.561 µM (active); with M14 it was 2.86 µM (inactive). The GI50 with MOLT-4 was 1.03 µM (active); in the assay with OVCAR-4, 0.536 µM (active); with OVCAR-8, 0.743 µM (active); in the assay on RXF 393, 0.713 µM (active); with SK-MEL-28, 9.51 µM (inactive); in the assay with SK-MEL-2, 0.895 µM (active). The GI50 was 0.615 µM (active) in the assay with SNB-19 and 3.2 µM (inactive) in the assay on UACC-257.
For `COC(=O)c1c(CC(Cc2ccc3c(c2)CCCC3)C(=O)OC)ccc2c1CCCC2` (stereo not given), the GI50 in the assay with A549 is 37 µM (inactive); with BT-549, > 100 µM (inactive); in the assay with CCRF-CEM it was 35.4 µM (inactive); in the assay on HCT-116, 72.8 µM (inactive); in the assay with HL-60 it was 16.6 µM (inactive); with HOP-62, > 100 µM (inactive). The GI50 with HOP-92 is 23 µM (inactive); in the assay on HT-29, 24.4 µM (inactive); in the assay on IGROV-1, > 100 µM (inactive); in the assay on K562, 32.9 µM (inactive); in the assay on KM12, 40.3 µM (inactive); in the assay on M14 it was > 100 µM (inactive). Besides, the GI50 with MOLT-4 was 27.2 µM (inactive); with OVCAR-4, 5.68 µM (inactive); in the assay on OVCAR-8, > 100 µM (inactive); with RXF 393, 60.5 µM (inactive); in the assay with SK-MEL-28 it was > 100 µM (inactive); with SK-MEL-2 it was > 100 µM (inactive). Also, the values for the GI50 in the assay on SNB-19 and with UACC-257 were > 100 µM (inactive) and 24 µM (inactive), respectively.
In the case of `CC(C)(C)c1cc(C2COC(=O)COCC(=O)OCCOCCOCCO2)cc(C(C)(C)C)c1O` (stereo not given), the GI50 in the assay on A549 was > 31.6 µM (inactive); with BT-549 it was > 57.5 µM (inactive); in the assay on CCRF-CEM it was > 100 µM (inactive); with HCT-116, > 100 µM (inactive); in the assay with HL-60, > 31.6 µM (inactive); with HOP-62, 46.7 µM (inactive). In addition, the GI50 is 22.9 µM (inactive) with HOP-92; 98.9 µM (inactive) with HT-29; > 100 µM (inactive) in the assay with IGROV-1; > 100 µM (inactive) in the assay with K562; > 100 µM (inactive) in the assay with KM12; 19.4 µM (inactive) in the assay with M14. The GI50 with MOLT-4 was > 100 µM (inactive); in the assay on OVCAR-4, > 100 µM (inactive); in the assay with OVCAR-8, 62.4 µM (inactive); in the assay on RXF 393, 20.7 µM (inactive); in the assay on SK-MEL-28, 19.2 µM (inactive); in the assay on SK-MEL-2, 32.1 µM (inactive). The figures for the GI50 in the assay on SNB-19 and in the assay with UACC-257 were > 100 µM (inactive) and > 61.7 µM (inactive), respectively.
With `COc1ccc(NC(=O)CSc2nnc(-c3ccc(/N=C\c4ccc(Cl)cc4)cc3)o2)cc1`, the GI50 was > 100 µM (inactive) in the assay on A549; 17 µM (inactive) with BT-549; 8.22 µM (inactive) in the assay on CCRF-CEM; 14.2 µM (inactive) in the assay with HCT-116; 4.85 µM (inactive) in the assay on HL-60; 24.8 µM (inactive) in the assay on HOP-62. Moreover, the GI50 is 14.4 µM (inactive) in the assay on HOP-92; 42.8 µM (inactive) in the assay on HT-29; 39.5 µM (inactive) with IGROV-1; 11 µM (inactive) with K562; 29.9 µM (inactive) with KM12; 26.5 µM (inactive) in the assay with M14. The GI50 was 13.9 µM (inactive) in the assay on MOLT-4; 23.5 µM (inactive) with OVCAR-4; 35.9 µM (inactive) in the assay on OVCAR-8; > 69.7 µM (inactive) with RXF 393; > 45.1 µM (inactive) in the assay on SK-MEL-28; 15 µM (inactive) with SK-MEL-2. The figures for the GI50 with SNB-19 and in the assay with UACC-257 were 29.9 µM (inactive) and 46.5 µM (inactive), respectively.
Regarding `CC(C)(C)N1CC1CNC(=O)C(=O)NCC1CN1C(C)(C)C` (stereo not given), the GI50 was 3.93 µM (inactive) in the assay on A549; 29.9 µM (inactive) in the assay with BT-549; 0.665 µM (active) in the assay with CCRF-CEM; 3.97 µM (inactive) in the assay on HCT-116; 0.411 µM (active) in the assay with HL-60; 1.31 µM (inactive) in the assay with HOP-62. In addition, the GI50 in the assay on HOP-92 was 9.51 µM (inactive); in the assay with HT-29, 2.45 µM (inactive); in the assay with IGROV-1 it was 5.83 µM (inactive); in the assay with K562 it was 3.79 µM (inactive); with KM12 it was 4.74 µM (inactive); in the assay on M14, 3.61 µM (inactive). Also, the GI50 in the assay on MOLT-4 is 1.57 µM (inactive); with OVCAR-4 it was 28.5 µM (inactive); in the assay on OVCAR-8, 1.79 µM (inactive); in the assay with RXF 393, 1.67 µM (inactive); in the assay with SK-MEL-28, 5.42 µM (inactive); in the assay with SK-MEL-2, 5.33 µM (inactive). The figures for the GI50 with SNB-19 and in the assay with UACC-257 were 13.7 µM (inactive) and 5.05 µM (inactive), respectively.
Regarding `Oc1cc(-c2ccccc2)cn2c1nc1ccccc12`, the GI50 is 1.73 µM (inactive) with A549; 4.55 µM (inactive) with BT-549; 3.4 µM (inactive) in the assay on CCRF-CEM; 0.767 µM (active) with HCT-116; 0.482 µM (active) in the assay on HL-60; 2.4 µM (inactive) in the assay on HOP-62. Besides, the GI50 in the assay on HOP-92 was > 25.5 µM (inactive); in the assay on HT-29 it was 8.63 µM (inactive); with IGROV-1, 1.43 µM (inactive); with K562, 0.525 µM (active); in the assay on KM12, 1.5 µM (inactive); with M14, 0.9 µM (active). In addition, the GI50 is 3.44 µM (inactive) in the assay on MOLT-4; 4.23 µM (inactive) in the assay on OVCAR-4; 2.42 µM (inactive) in the assay on OVCAR-8; > 22 µM (inactive) with RXF 393; 4.31 µM (inactive) in the assay with SK-MEL-28; 2.11 µM (inactive) with SK-MEL-2. The figures for the GI50 in the assay on SNB-19 and in the assay on UACC-257 were 3.45 µM (inactive) and > 63.5 µM (inactive), respectively.
For `CCOC(=O)C(NC(=O)c1cccc(Cl)c1)(N1CCN(c2cc3c(cc2F)c(=O)c(C(=O)O)cn3CC)CC1)C(F)(F)F` (stereo not given), the GI50 with A549 is 18.7 µM (inactive); with BT-549 it was 19.4 µM (inactive); in the assay with CCRF-CEM, 2.61 µM (inactive); with HCT-116 it was 14 µM (inactive); with HL-60 it was 4.47 µM (inactive); with HOP-62 it was 20.5 µM (inactive). Besides, the GI50 in the assay with HOP-92 was 13.8 µM (inactive); in the assay with HT-29 it was 17.6 µM (inactive); with IGROV-1, 18.3 µM (inactive); in the assay on K562 it was 5.73 µM (inactive); in the assay on KM12, 11.7 µM (inactive); with M14 it was 16.8 µM (inactive). Besides, the GI50 is 3.85 µM (inactive) in the assay on MOLT-4; 18.6 µM (inactive) in the assay with OVCAR-4; 16.6 µM (inactive) in the assay with OVCAR-8; 18.2 µM (inactive) in the assay with RXF 393; 17 µM (inactive) in the assay with SK-MEL-28; 13.5 µM (inactive) in the assay with SK-MEL-2. The GI50 in the assay with SNB-19 was 29.4 µM (inactive); with UACC-257 it was 27.4 µM (inactive).
With `CC1(O)C(=O)OC2CC([C@]3(O)CCC4[C@@H]5C[C@H]6O[C@]67[C@@H](O)C=CC(=O)[C@]7(C)C5CC[C@@]43C)C1(C)C2` (stereo not given in full), the GI50 is 38.7 µM (inactive) in the assay with A549; 6.68 µM (inactive) in the assay on BT-549; 2.03 µM (inactive) in the assay on CCRF-CEM; 10.9 µM (inactive) in the assay with HCT-116; 3.52 µM (inactive) with HL-60; 52.7 µM (inactive) with HOP-62. For the same molecule, the GI50 in the assay with HOP-92 was 3.44 µM (inactive); in the assay on HT-29 it was 17.1 µM (inactive); in the assay on IGROV-1, 23.1 µM (inactive); in the assay with K562, 3.6 µM (inactive); in the assay with KM12, 27 µM (inactive); with M14, 12.6 µM (inactive). In addition, the GI50 with MOLT-4 was 2.89 µM (inactive); with OVCAR-4, 12.1 µM (inactive); in the assay with OVCAR-8 it was 25.1 µM (inactive); in the assay with RXF 393 it was 3.63 µM (inactive); with SK-MEL-28 it was 9.35 µM (inactive); in the assay with SK-MEL-2, 13.8 µM (inactive). Further, the GI50 is 47.2 µM (inactive) in the assay with SNB-19 and 11.5 µM (inactive) with UACC-257.

The record behind these values is ChEMBL document CHEMBL1201862, “PubChem BioAssay data set” (2004).
